Numbers after ± are expanded uncertainties.
Assays:
[1] = Crystal; DTA
[2] = Molar enthalpy of transition or fusion; conditions: Crystal; DSC

SMILES	Normal melting temperature [1] [°C]	Molar enthalpy of transition or fusion [2] [kcal/mol]
NC(=O)C[C@H](N)C(=O)O [L-asparagine]	210.20 ± 3.2	26.9 ± 1.53
NC(=O)CC[C@H](N)C(=O)O [L-glutamine]	182.20 ± 3.4	6.93 ± 0.884

— the NIST ThermoML archive (doi:10.1016/j.tca.2009.08.017)
